Results: ChEMBL document CHEMBL2007661, “Compounds: GSK PKIS; Assays: UNC Frye lab” (2012)
“And” between values parts separate entries of the source, which are not always exact repeats. Equal values may be shown once.

Columns and labels:
Settings in all cases: at 1 µM
[1] = biological target: T1, Inhibitor of nuclear factor kappa-B kinase subunit alpha (Homo sapiens) (UniProt O15111)
T1 sequence (whole entry): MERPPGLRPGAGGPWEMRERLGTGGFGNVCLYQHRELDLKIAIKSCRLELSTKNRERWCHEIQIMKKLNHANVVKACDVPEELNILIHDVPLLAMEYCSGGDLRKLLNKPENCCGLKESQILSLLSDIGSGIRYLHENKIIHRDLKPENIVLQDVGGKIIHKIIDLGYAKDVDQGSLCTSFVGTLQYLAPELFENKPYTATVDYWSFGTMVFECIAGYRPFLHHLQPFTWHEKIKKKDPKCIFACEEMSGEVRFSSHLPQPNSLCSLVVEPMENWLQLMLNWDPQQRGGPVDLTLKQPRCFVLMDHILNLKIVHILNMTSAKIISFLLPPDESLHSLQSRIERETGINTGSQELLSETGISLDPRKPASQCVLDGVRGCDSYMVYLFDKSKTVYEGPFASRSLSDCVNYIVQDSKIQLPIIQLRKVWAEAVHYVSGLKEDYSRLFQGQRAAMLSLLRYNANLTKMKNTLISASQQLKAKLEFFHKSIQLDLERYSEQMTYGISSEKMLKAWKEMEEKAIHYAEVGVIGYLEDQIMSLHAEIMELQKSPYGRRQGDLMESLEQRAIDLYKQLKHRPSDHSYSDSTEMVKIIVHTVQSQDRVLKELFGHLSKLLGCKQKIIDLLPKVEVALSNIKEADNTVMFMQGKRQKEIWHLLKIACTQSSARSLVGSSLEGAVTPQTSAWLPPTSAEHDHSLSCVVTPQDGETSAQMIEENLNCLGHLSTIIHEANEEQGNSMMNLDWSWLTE

[2] = biological target: T2, Inhibitor of nuclear factor kappa-B kinase subunit beta (Homo sapiens) (UniProt O14920)
T2 sequence (whole entry): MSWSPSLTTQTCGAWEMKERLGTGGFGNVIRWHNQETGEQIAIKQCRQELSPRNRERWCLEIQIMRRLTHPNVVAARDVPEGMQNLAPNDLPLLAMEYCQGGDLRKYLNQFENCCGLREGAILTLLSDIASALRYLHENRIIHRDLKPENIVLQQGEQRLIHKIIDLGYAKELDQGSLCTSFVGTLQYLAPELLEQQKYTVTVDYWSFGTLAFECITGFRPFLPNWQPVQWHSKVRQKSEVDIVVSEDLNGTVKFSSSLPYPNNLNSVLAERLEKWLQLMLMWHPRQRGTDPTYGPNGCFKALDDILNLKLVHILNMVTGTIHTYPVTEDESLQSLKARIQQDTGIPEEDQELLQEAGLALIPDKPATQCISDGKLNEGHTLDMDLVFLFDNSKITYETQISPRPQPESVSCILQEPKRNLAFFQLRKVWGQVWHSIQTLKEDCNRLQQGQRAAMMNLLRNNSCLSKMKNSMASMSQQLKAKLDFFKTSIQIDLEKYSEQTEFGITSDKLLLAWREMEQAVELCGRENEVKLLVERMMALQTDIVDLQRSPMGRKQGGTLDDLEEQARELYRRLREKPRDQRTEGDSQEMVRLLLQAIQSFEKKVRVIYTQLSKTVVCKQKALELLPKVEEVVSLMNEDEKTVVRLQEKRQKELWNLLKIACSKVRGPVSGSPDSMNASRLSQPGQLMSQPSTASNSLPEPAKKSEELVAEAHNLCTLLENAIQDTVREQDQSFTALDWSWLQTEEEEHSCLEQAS

[3] = biological target: T3, Inhibitor of nuclear factor kappa-B kinase subunit epsilon (Homo sapiens) (UniProt Q14164)
T3 sequence (whole entry): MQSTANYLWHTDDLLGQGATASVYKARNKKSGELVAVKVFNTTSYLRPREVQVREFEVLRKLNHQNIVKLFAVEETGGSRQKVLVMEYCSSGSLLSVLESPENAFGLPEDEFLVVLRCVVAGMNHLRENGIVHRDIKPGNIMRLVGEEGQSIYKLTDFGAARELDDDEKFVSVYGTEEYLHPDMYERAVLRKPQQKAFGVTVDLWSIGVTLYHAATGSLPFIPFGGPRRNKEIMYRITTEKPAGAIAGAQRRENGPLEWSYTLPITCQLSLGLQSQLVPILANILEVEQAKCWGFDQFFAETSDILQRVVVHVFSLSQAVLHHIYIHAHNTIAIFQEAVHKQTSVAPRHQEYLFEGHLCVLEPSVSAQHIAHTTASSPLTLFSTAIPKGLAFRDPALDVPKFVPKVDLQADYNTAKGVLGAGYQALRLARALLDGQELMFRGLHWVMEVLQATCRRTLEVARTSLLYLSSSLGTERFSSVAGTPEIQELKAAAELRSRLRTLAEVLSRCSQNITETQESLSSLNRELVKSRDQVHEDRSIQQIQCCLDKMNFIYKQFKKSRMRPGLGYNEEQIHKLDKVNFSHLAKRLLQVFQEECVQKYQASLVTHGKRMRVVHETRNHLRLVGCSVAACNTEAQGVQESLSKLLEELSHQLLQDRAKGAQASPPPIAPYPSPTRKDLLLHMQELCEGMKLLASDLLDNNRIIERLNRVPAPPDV

[4] = biological target: T4, Serine/threonine-protein kinase TBK1 (Homo sapiens) (UniProt Q9UHD2)
T4 sequence (whole entry): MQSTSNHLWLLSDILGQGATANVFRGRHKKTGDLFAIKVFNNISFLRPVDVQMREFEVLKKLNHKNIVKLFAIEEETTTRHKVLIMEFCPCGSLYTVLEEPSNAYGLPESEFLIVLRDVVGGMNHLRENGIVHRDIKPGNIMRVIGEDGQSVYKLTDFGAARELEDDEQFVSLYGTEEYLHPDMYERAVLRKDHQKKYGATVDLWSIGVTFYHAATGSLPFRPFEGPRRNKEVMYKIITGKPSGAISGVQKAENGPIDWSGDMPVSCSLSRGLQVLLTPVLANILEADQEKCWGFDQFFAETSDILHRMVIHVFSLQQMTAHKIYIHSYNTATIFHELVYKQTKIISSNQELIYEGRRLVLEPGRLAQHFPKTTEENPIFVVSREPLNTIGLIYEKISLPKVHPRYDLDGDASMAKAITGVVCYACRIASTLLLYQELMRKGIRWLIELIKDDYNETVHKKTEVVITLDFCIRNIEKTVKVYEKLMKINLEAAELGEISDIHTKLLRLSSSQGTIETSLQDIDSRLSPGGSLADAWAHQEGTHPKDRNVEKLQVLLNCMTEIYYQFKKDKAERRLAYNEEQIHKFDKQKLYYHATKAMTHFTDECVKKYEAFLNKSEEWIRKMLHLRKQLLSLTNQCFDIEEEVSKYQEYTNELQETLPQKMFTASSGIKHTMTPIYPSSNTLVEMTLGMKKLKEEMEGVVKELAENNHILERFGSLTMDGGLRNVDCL

Compound	inhibition [1]	inhibition [2]	inhibition [3]	inhibition [4]
NS(=O)(=O)c1ccc(-c2ccc3c(NC(=O)C4CC4)n[nH]c3c2)cc1	-1% and 2%	-7% and -3%	1% and -2%	-3% and 0%
COc1cc2ncn(-c3cc(OCc4ccccc4C(F)(F)F)c(C(N)=O)s3)c2cc1OC	2% and 0%	-1% and 0%	0% and 3%	12%
CN(C)CCCn1c(-c2nonc2N)nc2cnccc21	8% and 10%	-5% and -4%	2%	1% and 0%
O=C(Nc1n[nH]c2nc(-c3ccco3)c(Br)cc12)C1CC1	85%	-5% and -1%	0%	18% and 25%
COC(=O)Nc1nc2cc(Oc3ccc(NC(=O)Nc4ccccc4)cc3)ccc2[nH]1	-1% and -2%	1% and -1%	2% and 1%	8%
CN(C)CCNC(=O)Nc1ccc(N(C)c2ccnc(Nc3ccc(CS(C)(=O)=O)cc3)n2)cc1	1%	-1% and -5%	1%	-2% and -4%
[O-][S+]1CCN(Cc2ccc(-c3ccc4ncnc(Nc5ccc(OCc6cccc(F)c6)c(Cl)c5)c4c3)o2)CC1	16% and 1%	2% and 3%	1% and 2%	7% and 0%
Cc1nnc(-c2cccc(-c3ccc(C(=O)NCC4CC4)cc3)c2)o1	3% and 4%	-4%	-1%	-1% and -2%
CS(=O)(=O)Nc1ccc(N/C=C2\C(=O)Nc3ccccc32)cc1	4% and 0%	-1% and -4%	25% and 24%	29% and 20%
COc1cc2c(cc1Nc1nc(Nc3ccsc3C(N)=O)c3cc[nH]c3n1)N(C(=O)CN(C)C)CCC2	3% and 4%	-6% and -4%	7% and 6%	23% and 19%
Nc1ncnc2occ(-c3ccc(NC(=O)Nc4cc(C(F)(F)F)cc(C(F)(F)F)c4)cc3)c12	4% and 1%	-4%	7% and 8%	-3% and -6%
Fc1ccc(-c2ncn(C3CCNCC3)c2-c2ccnc(Oc3ccc4c(c3)OCO4)n2)cc1	-2% and 0%	-2% and -3%	-2% and 2%	-3% and -5%
O=C1Nc2ccc(-c3cccnc3)cc2C1=Cc1cc(Br)c(O)c(Br)c1	16% and 2%	-5% and -4%	37% and 39%	40% and 43%
CCc1cccc(NC(=O)Nc2ccc(Oc3ccc4nc(NC(=O)OC)[nH]c4c3)cc2)c1	-10%	0% and 6%	-3% and -1%	-3% and -1%
O=C(Nc1n[nH]c2cc(-c3ccc(F)cc3)ccc12)C1CC1	2% and 12%	-8% and -2%	2% and -1%	2% and 4%
CN1CCN(Cc2ccc(-c3cc4ncnc(Nc5ccc(OCc6cccc(F)c6)c(Cl)c5)c4s3)o2)CC1	0% and -4%	-3%	6% and 5%	7% and 3%
Cc1cc(Cl)cc2c1NC(=O)C2=NNc1ccc(S(N)(=O)=O)cc1	11%	-6% and -1%	4%	29% and 26%

The next lines start with the values.

inhibition [1]	inhibition [2]	inhibition [3]	inhibition [4]	Compound
1%	-4%	1%	1% and 0%	COc1ccc(-c2nn3ncccc3c2-c2ccnc(Nc3ccc4c(c3)OCCO4)n2)cc1
6%	-7% and -8%	-2% and -1%	-4% and -2%	COc1ccc(-c2cc(-c3c[nH]nc3-c3ccccn3)ccn2)cc1
0% and 6%	-3% and -5%	13%	19% and 17%	CN(c1ccc(NC(=O)Nc2c(Cl)cccc2Cl)cc1)c1ccnc(Nc2cccc(CS(C)(=O)=O)c2)n1
15%	-5% and 0%	7% and 10%	17% and 18%	Cn1cc(C=C2C(=O)Nc3cccnc32)c2ccccc21
-5% and -4%	0%	3%	5% and 4%	NC(=O)c1ccc(Oc2nccc(-c3c(-c4ccc(F)cc4)ncn3C3CCNCC3)n2)cc1
2% and 0%	-6% and -7%	2% and 4%	18% and 9%	Nc1nccc(C#Cc2cncnc2Nc2ccc(OCc3cccc(F)c3)c(Cl)c2)n1
6% and 4%	0% and -5%	1%	2% and 1%	Cc1ccc(O)cc1Nc1ccnc2cc(-c3ccccn3)ccc12
-4% and -5%	1% and 0%	-1% and -2%	-2% and -3%	COc1ccc2cc(-c3c(-c4ccncc4)nc(-c4ccc([S+](C)[O-])cc4C)n3C)ccc2c1 (stereo not given)
1% and 2%	-5% and -2%	-2% and -1%	-5% and -4%	c1ccc(Oc2ccc(Nc3ncc(-c4ccccc4)o3)cc2)cc1
-1% and 0%	-3% and -2%	-2% and -3%	-4% and -2%	NS(=O)(=O)c1ccc(Nc2cc(-c3cccc(O)c3)n[nH]2)cc1
2%	-4% and -2%	-1%	3% and 0%	CC(=O)Nc1cccc(C#Cc2cncnc2Nc2ccc(OCc3cccc(F)c3)c(Cl)c2)n1
-7% and 2%	3% and -7%	8% and 7%	1%	CCS(=O)(=O)c1ccc(OC)c(Nc2nccc(N(C)c3ccc4c(C)n[nH]c4c3)n2)c1
3% and 2%	-2%	-1% and -2%	0% and 3%	Fc1ccc(-c2ncn(C3CCNCC3)c2-c2ccnc(Oc3ccccc3)n2)cc1
